PubChem BioAssay (NCI)
Several values for one entry are separate records, joined by “and”; a condition that tells them apart may be missing. Equal entries are not always repeated.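 Interpolation was linear, between the two tested concentrations surrounding the appropriate level; five concentrations were tested over 48 hours in 96-well plates. At the GI50, growth is halved. TGI denotes the concentration required for complete inhibition of growth.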

How the values were obtained:
Assay in all cases: NCI tumour cell line growth inhibition, 48 h
DMS 273 small cell lung = system: DMS 273 small cell lung
LXFL 529 NSCLC = system: LXFL 529 NSCLC
DMS 114 small cell lung = system: DMS 114 small cell lung
SNB-78 CNS = system: SNB-78 CNS
KM20L2 colon = system: KM20L2 colon
P388/ADR leukemia = system: P388/ADR leukemia
P388 leukemia = system: P388 leukemia
DLD-1 colon = system: DLD-1 colon
XF 498 CNS = system: XF 498 CNS
SN12K1 renal = system: SN12K1 renal
HOP-18 NSCLC = system: HOP-18 NSCLC

SMILES | TGI (DMS 273 small cell lung) | TGI (LXFL 529 NSCLC) | TGI (DMS 114 small cell lung) | TGI (SNB-78 CNS) | TGI (KM20L2 colon) | TGI (P388/ADR leukemia) | TGI (P388 leukemia) | TGI (DLD-1 colon) | TGI (XF 498 CNS) | TGI (SN12K1 renal) | TGI (HOP-18 NSCLC) | GI50 (DMS 273 small cell lung) | GI50 (P388/ADR leukemia) | GI50 (DMS 114 small cell lung) | GI50 (P388 leukemia) | GI50 (SNB-78 CNS) | GI50 (SN12K1 renal) | GI50 (DLD-1 colon) | GI50 (HOP-18 NSCLC) | GI50 (KM20L2 colon)
O=C(CCN1CCCCC1CO)Nc1ccc2c(c1)C(=O)c1ccc(NC(=O)CCN3CCCCC3CO)cc1C2=O (stereo unspecified) | 19.2 µM | 9.71 µM | 30.9 µM | 34.6 µM | 76.4 µM |  |  |  |  |  |  |  |  |  |  |  |  |  |  | 
COc1ccc(CC2C(=O)NC(C)C(=O)N(C)C3Cc4ccc(cc4)Oc4cc(ccc4O)CC(C(=O)NC(C)C(=O)NC(C)C(=O)N2C)N(C)C3=O)cc1 (stereo unspecified) | 0.0532 µM |  |  | 0.0256 µM | 0.49 µM | 20.6 µM | 0.0177 µM | 1.09 µM | 22.4 nM |  |  |  |  |  |  |  |  |  |  | 
C=C1C(=O)C[C@@]23CCC[C@@]12CC(O)C3 (stereo partly specified) | 45.8 µM |  | 38.3 µM | 99 µM | 47.9 µM | 32.4 µM | 25.3 µM | 54.8 µM | 41100 nM | 39.6 µM | 37.4 µM |  |  |  |  |  |  |  |  | 
NC(CO)c1ccccc1 (stereo unspecified) | > 100 µM | > 100 µM | > 100 µM | > 100 µM | > 100 µM |  |  | > 100 µM | > 100000 nM |  | 96.1 µM |  |  |  |  |  |  |  |  | 
CC(=O)c1c(O)c(C)c(O)c2c1OC1=CC(=O)C(C(C)=O)C(=O)C12C (stereo unspecified) | 11.9 µM and 22.5 µM |  | 29.9 µM and 58.3 µM | 48.6 µM and 80.4 µM | 16.9 µM and 65.3 µM | 44.1 µM and 61.5 µM | 26.3 µM and 60.3 µM | 29.9 µM and 69 µM | 807 nM and 835 nM | 19.4 µM and 39.3 µM | 10.6 µM and 67.2 µM | 3.74 µM and 7.53 µM | 5.92 µM and 20.1 µM | 6.22 µM and 18.5 µM | 3.74 µM and 23.8 µM | 8.87 µM and 28.8 µM | 4.99 µM and 14.1 µM | 4.9 µM and 16.1 µM | 3.28 µM and 14.6 µM | 4.99 µM and 27 µM
COc1cc2cc3c4c(cc(OC)c(OC)c4c2cc1OC)CCN3C(=O)OCCBr | > 100 µM |  |  | > 100 µM | > 100 µM |  |  | > 100 µM | > 100000 nM |  |  |  |  |  |  |  |  |  |  | 
CCN(CC)c1ccc(C(=C2C=CC(=[N+](CC)CC)C=C2)c2ccccc2)cc1 | 0.134 µM | 0.115 µM | 0.208 µM | 0.237 µM | 0.117 µM |  |  | 0.193 µM | 39.1 nM |  |  |  |  |  |  |  |  |  |  | 
